Reference: patent US12714684B2 (ALPARIS, S.A. DE C.V., priority 2019, dated 2026)
Converted amounts (≈) assume the structure as drawn.

Columns and labels:
[1] = test system: Complete Freund's Adjuvant (CFA)-induced inflammation; test: Complete Freund's adjuvant (CFA)-induced inflammation model, volume displacement by plethysmometer; type: in vivo, Sprague-Dawley male rats
Description: (§1) Preclinical studies were performed in rats with a chronic inflammation model using complete Freund's adjuvant (CFA) given intra-articularly (AIA), as well as an acute model induced by carrageenan (CAR) given in the subplantar region.
(§2) In these models, the inflammation induced by the complete Freund's adjuvant and carrageenan is determined by the volume displacement measured with a plethysmometer.

[2] = test system: carrageenan (CAR)-induced inflammation; test: Carrageenan (CAR)-induced subplantar edema model, volume displacement by plethysmometer; type: in vivo, rats; conditions: for Time from which an anti-inflammatory effect is shown, carrageenan model: oral 100 mg/kg; for Effect in the time course, carrageenan model: oral 100 and 320 mg/kg
Description: The carrageenan (CAR)-induced subplantar edema model was used in the evaluation of the acute effect.
as §1, §2

[3] = test system: CAR-induced thermal hyperalgesia; test: Thermal hyperalgesia induced by carrageenan; type: in vivo, rats; conditions: oral 100 mg/kg
[4] = Thermodynamic solubility study in water with 1% LSS; type: physicochemical
Description: It was performed by adding 2 g of the solid phase to LSS (sodium lauryl sulfate) medium, with stirring at 37.5° C., and taking aliquots at 3, 5, 10 and 30 minutes. Aliquots were filtered and measurements were made with UV-Vis spectroscopy at 420 nm.
We measured the solubility of the co-amorphous phases at a lower concentration of 0.05 g in 3.5 ml, for determining the effect of concentration on the aggregation phenomenon.

[5] = Merck Index 15th ed.; cited from earlier work
[6] = oral, 100 and 320 mg/kg, 1 h before

Question: Which results are given for `O=C(O)Cc1ccccc1Nc1c(Cl)cccc1Cl` [diclofenac]?
Answer: Reversal of inflammation induced by complete Freund's adjuvant ([1]; oral, fixed dose 100 mg/kg): exhibited an anti-inflammatory effect; Reversal of inflammation induced by carrageenan ([2]; oral, fixed dose 100 mg/kg): exhibited an anti-inflammatory effect

Question: With `COc1cc(/C=C/C(=O)CC(=O)/C=C/c2ccc(O)c(OC)c2)ccc1O` [curcumin, (1E,6E)-1,7-bis(4-hydroxy-3-methoxyphenyl)-1,6-heptadiene-3,5-dione] as the compound, how does the “Effect with respect to the vehicle in the time course, CFA model” value ([1]; oral 100 mg/kg, at 3 and 4 hours) read?
Answer: shows an inflammatory effect with respect to the vehicle

Question: What about the “Effect with respect to the vehicle in the time course, CFA model” value ([1]; oral 320 mg/kg, between 2 and 6 hours) of the same compound?
Answer: shows an inflammatory effect with respect to the vehicle

Question: And the “Reversal of the inflammatory effect induced by complete Freund's adjuvant (AUC)” value [1, 6]?
Answer: unable to reverse the inflammatory effect

Question: What about the “Time from which an anti-inflammatory effect is shown, carrageenan model” value [2] of the same compound?
Answer: only in the last measurement

Question: What about the “Effect with respect to the vehicle in the time course, carrageenan model” value ([2]; oral 320 mg/kg, at 1 and 2 hours) of the same compound?
Answer: The same phenomenon is observed

Question: And the “Effect in the time course, carrageenan model” value ([2]; at 6 hours)?
Answer: seem to reverse the inflammatory effect induced by carrageenan

Question: And the “Reversal of the inflammatory effect induced by carrageenan (AUC)” value [2, 6]?
Answer: unable to reverse the inflammatory effect

Question: What about the “Antihyperalgesic effect, carrageenan-induced thermal hyperalgesia” value [3] of the same compound?
Answer: the three treatments produce an antihyperalgesic effect

Question: And the solubility at 30 min ([4]; water with 1% sodium lauryl sulfate (LSS), aqueous with cosolvent or surfactant or cyclodextrin, thermodynamic from solid, high concentration sample, 37.5° C., water with 1% LSS, 30 min)?
Answer: 110 µg/mL (≈ 299 µM)

Question: What about the “Solubility of curcumin alone in water” value ([4]; water, could not be determined) of the same compound?
Answer: almost insoluble in water

Question: And the Solubility in solvents [5]?
Answer: soluble in ethanol and in concentrated acetic acid

Question: Which results are given for `N=C(N)NCCC[C@H](N)C(=O)O` [L-arginine]?
Answer: Effect in relation to the vehicle in the time course, CFA model ([1]; oral 100 and 320 mg/kg, between 2 and 4 hours): showed an inflammatory effect in relation to the vehicle; Time from which an anti-inflammatory effect is shown, carrageenan model [2]: only in the last measurement; Effect in the time course, carrageenan model ([2]; first two hours): inclined to show a proinflammatory effect; Antihyperalgesic effect, carrageenan-induced thermal hyperalgesia [3]: the three treatments produce an antihyperalgesic effect
